From the Kinase Knowledgebase extract (Sharma et al. 2016) come the findings set out here.

Bounds are passed on as bounds.

For orientation: IC50 means the midpoint of a concentration-inhibition curve.

The target in the test is MAPK14 (human) (UniProt Q16539). In words: Inhibition of MAPK14 Kinase Activity. The settings on record: THP.1 monocytic.
Chain of MAPK14 (human) (Q16539 whole entry, looked up): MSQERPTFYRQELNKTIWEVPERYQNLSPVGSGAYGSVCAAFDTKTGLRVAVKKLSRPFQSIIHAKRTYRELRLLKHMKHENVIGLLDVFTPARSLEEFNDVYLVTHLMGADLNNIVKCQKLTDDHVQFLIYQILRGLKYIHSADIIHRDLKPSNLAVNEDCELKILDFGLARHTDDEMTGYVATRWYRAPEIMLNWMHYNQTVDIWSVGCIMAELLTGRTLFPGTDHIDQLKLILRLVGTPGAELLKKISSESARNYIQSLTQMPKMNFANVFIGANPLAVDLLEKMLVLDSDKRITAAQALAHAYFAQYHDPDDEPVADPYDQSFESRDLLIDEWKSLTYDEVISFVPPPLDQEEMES
On to `O=c1c(Br)c(OCc2ccccc2)c(Br)cn1Cc1ccccc1`, for which the IC50 is more than 100000 nM.

As for `CC(=O)NCc1cccc(Cn2c(C)cc(OCc3ccc(F)cc3F)c(Br)c2=O)c1`, the half-inhibitory concentration (IC50) is less than 1000 nM.

For `Cc1cc(OCc2ccc(F)cc2F)c(Br)c(=O)n1Cc1cccc(CN2CCOCC2)c1`, the IC50 was less than 1000 nM.

As to `CC(C)(C)c1ccc(Cn2ccc(OCc3ccc(F)cc3F)c(Br)c2=O)cc1`, the IC50 fell in the range of 1000 to 25000 nM.
